pIC50: −log10 of the molar value.
biological target: T1, recombinant human AKR1C3 (Homo sapiens, UniProt P42330); assay: AKR1C3-inhibitory activity assay (generation of Coumberol from Coumberone); assay type: biochemical; conditions: Coumberone 0.3 μM, NADPH 10 μM, 22° C., typically 90 min, average or median values
T1 construct: GST (cleaved yes); made in house; host or cells: E. coli
T1 sequence (P42330 1-323): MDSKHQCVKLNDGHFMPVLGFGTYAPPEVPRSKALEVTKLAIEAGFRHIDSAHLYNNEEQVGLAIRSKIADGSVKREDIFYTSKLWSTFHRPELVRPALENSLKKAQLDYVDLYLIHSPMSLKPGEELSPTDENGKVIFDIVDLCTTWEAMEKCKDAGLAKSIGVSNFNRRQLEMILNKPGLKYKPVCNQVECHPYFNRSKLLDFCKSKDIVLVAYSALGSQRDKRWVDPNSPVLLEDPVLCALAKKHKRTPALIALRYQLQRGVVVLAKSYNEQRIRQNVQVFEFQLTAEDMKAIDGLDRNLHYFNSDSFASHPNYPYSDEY
Protocol: The AKR1C3-inhibitory activity of the substances of the present invention was measured in the AKR1C3 assay described in the paragraphs below.
Essentially, the enzyme activity is measured by quantification of the generation of Coumberol from Coumberone (Halim et al. J. AM. CHEM. SOC. 2008, 130:14123-14128 and Yee et al. Proc. Natl. Acad. Sci. USA 2006, 103:13304-13309). In this test, the increase of the highly fluorescent Coumberol by NADPH- (nicotinamide adenine dinucleotide phosphate)-dependent reduction of the non-fluorescent Coumberone by AKR1C3 was determined.
The enzyme used was recombinant human AKR1C3 (Aldo-keto reductase family 1 member C3; GenBank Accession No. NM_003739). This was expressed in E. coli as GST (glutathione S transferase) fusion protein and purified by glutathione Sepharose affinity chromatography. The GST was removed by digestion with thrombin and subsequent size exclusion chromatography (Dufort, I., Rheault, P., Huang, X F., Soucy, P., and Luu-The, V., Endocrinology 140, 568-574 (1999)).
For the assay, 50 nl of a 100-fold concentrated solution of the test substance in DMSO were pipetted into a black low-volume 384-well microtiter plate (Greiner Bio-One, Frickenhausen, Germany), 2.5 μl of a solution of AKR1C3 in assay buffer [50 mM potassium phosphate buffer pH 7, 1 mM DTT, 0.0022% (w/v) Pluronic F-127, 0.01% BSA (w/v) and protease inhibitor cocktail (Complete, EDTA-free Protease Inhibitor Cocktail from Roche)] were added and the mixture was incubated for 15 min to allow pre-binding of the substances to the enzyme prior to the enzyme reaction. The enzyme reaction was then started by addition of 2.5 μl of a solution of NADPH (20 μM→final concentration in 5 μl of assay volume is 10 μM) and Coumberone (0.6 μM→final concentration in 5 μl of assay volume is 0.3 μM) in assay buffer, and the resulting mixture was incubated at 22° C. for the reaction time of typically 90 min. The concentration of the AKR1C3 and the reaction time was adapted to the respective activity of the enzyme preparation and adjusted such that the assay was carried out in the linear range. Typical AKR1C3 concentrations were in the region of 1 nM. The reaction was stopped by addition of 2.5 μl of a stop solution consisting of 3 μM EM-1404 as inhibitor (U.S. Pat. No. 6,541,463) in 50 mM HEPES pH7.5 (3 μM EM-1404→final concentration in 7.5 μl of assay volume is 1 μM). The fluorescence of the Coumberole was then measured at 520 nm (excitation at 380 nm) using a suitable measuring instrument (Pherastar from BMG Labtechnologies). The intensity of the fluorescence was used as a measure of the amount of Coumberole formed and thus of the enzyme activity of AKR1C3. The data were normalized (enzyme reaction without inhibitor=0% inhibition; all other assay components, but no enzyme=100% inhibition).

| pIC50 | SMILES |
| --- | --- |
| 7.89 | C[C@@H]1CN(S(=O)(=O)c2cc(F)cc(F)c2)C[C@H](C)N1C(=O)c1c[nH]nn1 [Example 56, {(2R,6S)-4-[(3,5-difluorophenyl)sulfonyl]-2,6-dimethylpiperazin-1-yl}(1H-1,2,3-triazol-4-yl)methanone] |
| 8.00 | C[C@@H]1CN(S(=O)(=O)c2cccc(C(F)(F)F)c2)C[C@H](C)N1C(=O)c1c[nH]nn1 [Example 57, [(2R,6S)-2,6-dimethyl-4-{[3-(trifluoromethyl)phenyl]sulfonyl}piperazin-1-yl](1H-1,2,3-triazol-4-yl)methanone] |
| 8.70 | C[C@@H]1CN(S(=O)(=O)c2cc(Cl)cc(Cl)c2)C[C@H](C)N1C(=O)c1c[nH]nn1 [Example 58, {(2R,6S)-4-[(3,5-dichlorophenyl)sulfonyl]-2,6-dimethylpiperazin-1-yl}(1H-1,2,3-triazol-4-yl)methanone] |
| 8.40 | C[C@@H]1CN(S(=O)(=O)c2cc(F)ccc2F)C[C@H](C)N1C(=O)c1c[nH]nn1 [Example 59, {(2R,6S)-4-[(2,5-difluorophenyl)sulfonyl]-2,6-dimethylpiperazin-1-yl}(1H-1,2,3-triazol-4-yl)methanone] |
| 7.33 | C[C@@H]1CN(S(=O)(=O)c2ccc(F)c(F)c2)C[C@H](C)N1C(=O)c1c[nH]nn1 [Example 60, {(2R,6S)-4-[(3,4-difluorophenyl)sulfonyl]-2,6-dimethylpiperazin-1-yl}(1H-1,2,3-triazol-4-yl)methanone] |
| 8.40 | C[C@@H]1CN(C(=O)c2cnn[nH]2)[C@@H](C)CN1S(=O)(=O)c1ccc(Br)cc1 [Example 61, {(2S,5R)-4-[(4-bromophenyl)sulfonyl]-2,5-dimethylpiperazin-1-yl}(1H-1,2,3-triazol-5-yl)methanone] |
| 7.06 | CC(=O)Nc1ccc(S(=O)(=O)N2C[C@H](C)N(C(=O)c3cnn[nH]3)C[C@H]2C)cc1 [Example 62, N-(4-{[(2R,5S)-2,5-dimethyl-4-(1H-1,2,3-triazol-5-ylcarbonyl)piperazin-1-yl]sulfonyl}phenyl)acetamide] |
| 8.52 | C[C@@H]1CN(C(=O)c2cnn[nH]2)[C@@H](C)CN1S(=O)(=O)c1ccc(Cl)cc1 [Example 63, {(2S,5R)-4-[(4-chlorophenyl)sulfonyl]-2,5-dimethylpiperazin-1-yl}(1H-1,2,3-triazol-5-yl)methanone] |
| 6.94 | C[C@@H]1CN(C(=O)c2cnn[nH]2)[C@@H](C)CN1S(=O)(=O)Cc1ccccc1 [Example 64, [(2S,5R)-4-(benzylsulfonyl)-2,5-dimethylpiperazin-1-yl](1H-1,2,3-triazol-5-yl)methanone] |
| 8.70 | C[C@@H]1CN(C(=O)c2cnn[nH]2)[C@@H](C)CN1S(=O)(=O)c1cccc2ccccc12 [Example 65, [(2S,5R)-2,5-dimethyl-4-(naphthalen-1-ylsulfonyl)piperazin-1-yl](1H-1,2,3-triazol-5-yl)methanone] |
| 8.40 | C[C@@H]1CN(C(=O)c2cnn[nH]2)[C@@H](C)CN1S(=O)(=O)c1ccc(F)cc1 [Example 66, {(2S,5R)-4-[(4-fluorophenyl)sulfonyl]-2,5-dimethylpiperazin-1-yl}(1H-1,2,3-triazol-5-yl)methanone] |
| 8.15 | COc1ccc(S(=O)(=O)N2C[C@H](C)N(C(=O)c3cnn[nH]3)C[C@H]2C)cc1 [Example 67, {(2S,5R)-4-[(4-methoxyphenyl)sulfonyl]-2,5-dimethylpiperazin-1-yl}(1H-1,2,3-triazol-5-yl)methanone] |
| 8.15 | C[C@@H]1CN(C(=O)c2cnn[nH]2)[C@@H](C)CN1S(=O)(=O)c1cccc2cccnc12 [Example 68, [(2S,5R)-2,5-dimethyl-4-(quinolin-8-ylsulfonyl)piperazin-1-yl](1H-1,2,3-triazol-5-yl)methanone] |
| 9.00 | Cc1ccccc1S(=O)(=O)N1C[C@H](C)N(C(=O)c2cnn[nH]2)C[C@H]1C [Example 69, {(2S,5R)-2,5-dimethyl-4-[(2-methylphenyl)sulfonyl]piperazin-1-yl}(1H-1,2,3-triazol-5-yl)methanone] |

— patent US20200079758A1, “[4-(PHENYLSULFONYL)PIPERAZIN-1-YL](1H-1,2,3-TRIAZOL-4-YL)METHANONES” (priority 2016, published 2020)
